Assay results published in the NIST ThermoML archive (doi:10.1016/j.jct.2016.09.022).

Legend:
[1] = Liquid; for speed of sound: Frequency=1.5 MHz, Single path-length method; for mass density: 298.15 K, 101.33 kPa, Vibrating tube method
[2] = refractive index (Na D-line) (dimensionless); conditions: 298.15 K; 101.33 kPa; Liquid; Standard Abbe refractometry

O [water]
speed of sound [m/s], [1]
Conditions	283.15 K	293.15 K	303.15 K	313.15 K	323.15 K	333.15 K	343.15 K
100 kPa	1447.3	–	–	1528.9	–	1551	1554.8
5100 kPa	1455.9	1490.5	1517.5	1537.6	1551.5	1560.1	1565
10100 kPa	1463.8	1498.9	1525.9	1546.1	1560.2	1569.2	1574.4
20100 kPa	1479.9	1515.3	–	1563.2	1577.7	1587.1	1592.8
30100 kPa	1496.2	1531.9	1559.5	1580.3	1595	1604.8	1610.8
40100 kPa	1513.4	1548.6	1576.3	1597.1	1612.2	1622.2	1628.6
50100 kPa	–	1565.3	1593.1	1613.8	1629	1639.3	1646.1
60100 kPa	1548	1582.2	1609.8	1630.4	1645.7	1656.3	1663.9
70100 kPa	1565.4	1599.1	1626.3	1646.9	1662.3	1673.1	1681
80100 kPa	1582.7	1615.8	1642.6	1663.3	1678.3	1689.6	1697.4
90100 kPa	1600.1	1632.4	1659	1679.4	1694.9	1705.9	1714.2
95100 kPa	1608.7	1640.7	1667.3	1687.5	1702.9	1714	1723

Conditions	refractive index
[2]	1.3326

Cc1ccccc1 [toluene]
speed of sound [m/s], [1]
Conditions	283.15 K	293.15 K	303.15 K	313.15 K	323.15 K	333.15 K	343.15 K
100 kPa	1369.5	1327.9	1284.1	1241.9	1200.2	1156.6	1118
5100 kPa	1395.4	1352.2	1309.8	1269	1229.2	1187.4	1149.1
10100 kPa	1418.1	1376	1334.3	1294.5	1256.4	1215.9	1178.9
20100 kPa	1460.8	1420.5	1380.9	1341	1306.4	1268.1	1234.3
30100 kPa	1500.8	1462	1424	1387	1352.7	1315.7	1283.9
40100 kPa	1538.7	1500.9	1464.7	1429.5	1396.3	1360.3	1329.5
50100 kPa	1574.4	1537.9	1503.3	1468.9	1436.9	1402.7	1371.4
60100 kPa	1608.1	1572.4	1539.6	1506.4	1474.9	1441.4	1413.5
70100 kPa	1640.3	1605.2	1572.1	1542.7	1511	1478.2	1451.5
80100 kPa	1670.9	1637	1605.2	1576.1	1545.3	1513.1	1487.6
90100 kPa	1700.3	1667.1	1638.2	1607.4	1576.7	1546.5	1522.1
95100 kPa	1714.5	1682	1653.5	1621.2	1591.2	1563	1538.7

Conditions	mass density [kg/m3]	refractive index
[1]	862.2	–
[2]	–	1.494

CCO [ethanol]
speed of sound [m/s], [1]
Conditions	283.15 K	293.15 K	303.15 K	313.15 K	323.15 K	333.15 K	343.15 K
100 kPa	1198.8	1163.8	1129.3	1094.7	1060.4	1027	992.92
5100 kPa	1227.7	1193.5	1159.8	1127.7	1094.5	1062.7	1030.2
10100 kPa	1255.7	1222.5	1189.8	1157.4	1126.5	1096.3	1065.8
20100 kPa	1306.5	1275.6	1245	1214.7	1185.2	1156.9	1129
30100 kPa	1353.1	1323.7	1295	1266.5	1238.8	1212.1	1185.8
40100 kPa	1397	1368.7	1340.6	1313.5	1287.5	1262.3	1237.5
50100 kPa	1437.9	1410.7	1384.2	1358.2	1332.4	1310.5	1284.9
60100 kPa	1476.1	1449.9	1424.6	1399.1	1374.8	1351.2	1328.8
70100 kPa	1512.5	1486.8	1462.7	1438.4	1414.7	1391.9	1370.2
80100 kPa	1547.2	1522.1	1498.1	1475.7	1452	1429.6	1409.5
90100 kPa	1580.2	1555.7	1532.5	1510.1	1487.5	1466.1	1446.3
95100 kPa	1596.1	1571.8	1549.3	1526.4	1504.5	1483.5	1464.1

Conditions	mass density [kg/m3]	refractive index
[1]	785.1	–
[2]	–	1.3593
